Measurements as given in ChEMBL document CHEMBL3414454, “Designing and exploring active N'-[(5-nitrofuran-2-yl) methylene] substituted hydrazides against three Trypanosoma cruzi strains more prevalent in Chagas disease patients” (Eur J Med Chem, 2015).

How the values were obtained:
Trypanosoma cruzi [1] = experiment: Anti-trypanosomal activity against Trypanosoma cruzi Y epimastigote forms assessed as inhibition of parasite growth after 72 hrs by microplate reader based assay; type: functional, organism-based; conditions: for IC50: Trypanosoma cruzi, Y, 72 h
Trypanosoma cruzi [2] = experiment: Anti-trypanosomal activity against Trypanosoma cruzi Bug 2149 cl10 epimastigote forms assessed as inhibition of parasite growth after 72 hrs by microplate reader based assay; type: functional, organism-based; conditions: for IC50: Trypanosoma cruzi, Bug 2149 cl10, CL1-0, 72 h
[3] = Cytotoxicity against human LL24 cells assessed as inhibition of cell growth after 24 hrs by MTT assay; type: cell-based; conditions: LL24, 24 h
[4] = Selectivity index, ratio of IC50 for human LL24 cells to IC50 for Trypanosoma cruzi Y epimastigote forms; type: toxicity, cell-based; conditions: read-out: Ratio IC50
[5] = Selectivity index, ratio of IC50 for human LL24 cells to IC50 for Trypanosoma cruzi Bug 2149 cl10; type: toxicity, cell-based; conditions: read-out: Ratio IC50
Trypanosoma cruzi [6] = experiment: Anti-trypanosomal activity against Trypanosoma cruzi Silvio X10 cl1 epimastigote forms assessed as inhibition of parasite growth after 72 hrs by microplate reader based assay; type: functional, organism-based; conditions: for IC50: Trypanosoma cruzi, Silvio X10 cl1, 72 h
[7] = Selectivity index, ratio of IC50 for human LL24 cells to IC50 for Trypanosoma cruzi Silvio X10 cl1 epimastigote forms; type: toxicity, cell-based; conditions: read-out: Ratio IC50

SMILES | log1/IC50 (Trypanosoma cruzi [1]) | IC50 (Trypanosoma cruzi [1]) [µM] | log1/IC50 (Trypanosoma cruzi [2]) | IC50 (Trypanosoma cruzi [2]) [µM] | log1/IC50 (Trypanosoma cruzi [6]) | IC50 (Trypanosoma cruzi [6]) [µM] | IC50 [3] [µM] | selectivity ratio [4] | selectivity ratio [5] | selectivity ratio [7]
O=C(N/N=C/c1ccc([N+](=O)[O-])o1)c1ccc(O)cc1 [NIFUROXAZIDE] | 3.52 | 300 | 3.52 | 300 |  |  | > 200 | > 1 | > 1 | 
O=C(N/N=C/c1ccc([N+](=O)[O-])o1)C1CCCCC1 | 4.84 | 14.4 | 4.89 | 12.8 | 4.86 | 13.7 | > 200 | > 14 | > 16 | > 15
CCCCCCCC(=O)N/N=C/c1ccc([N+](=O)[O-])o1 | 4.87 | 13.5 | 4.84 | 14.4 | 4.83 | 14.7 | 91 | 7 | 6 | 6
CCCCCC(=O)N/N=C/c1ccc([N+](=O)[O-])o1 | 4.99 | 10.2 | 4.91 | 12.2 | 5.01 | 9.72 | 99 | 10 | 8 | 10
N#Cc1ccc(C(=O)N/N=C/c2ccc([N+](=O)[O-])o2)cc1 | 4.64 | 23.1 | 4.6 | 25.3 | 4.43 | 37.4 | > 200 | > 9 | > 8 | > 5
CC1CS(=O)(=O)CCN1/N=C/c1ccc([N+](=O)[O-])o1 (stereo not drawn) [NIFURTIMOX] | 4.89 | 12.8 | 5.14 | 7.32 | 5.22 |  | > 200 | > 16 | > 27 | > 33
CC(=O)N/N=C/c1ccc([N+](=O)[O-])o1 [NIHYDRAZONE] | 4.86 | 13.7 | 4.8 | 15.8 | 4.57 | 27.1 | > 200 | > 15 | > 13 | > 7
O=C(N/N=C/c1ccc([N+](=O)[O-])o1)c1ccccc1 | 4.9 | 12.6 | 4.85 | 14.2 | 4.51 | 31.1 | 178 | 14 | 12.5 | 5.72
O=C(Cn1ccnc1[N+](=O)[O-])NCc1ccccc1 [BENZNIDAZOLE] |  | 40.4 |  |  |  |  | > 200 |  |  | 
Cc1cccc(C(=O)N/N=C/c2ccc([N+](=O)[O-])o2)c1 | 5 | 9.89 | 4.61 | 24.8 | 4.56 | 27.7 | > 200 | > 20 | > 8 | > 7
O=C(Cc1ccccc1)N/N=C/c1ccc([N+](=O)[O-])o1 | 4.96 | 11 | 4.91 | 12.3 | 4.69 | 20.2 | 97 | 8.83 | 7.91 | 4.79
O=C(N/N=C/c1ccc([N+](=O)[O-])o1)C1CCCC1 | 4.93 | 11.9 | 4.84 | 14.6 | 4.7 | 19.9 | 58 | 5 | 4 | 3
CN(C)c1ccc(C(=O)N/N=C/c2ccc([N+](=O)[O-])o2)cc1 | 4 | 100 | 4.33 | 47.3 | 4 | 100 | > 200 | > 2 | > 4 | > 2

These reach a lower IC50 (Trypanosoma cruzi [1]). Values come first.

log1/IC50 (Trypanosoma cruzi [1]) | IC50 (Trypanosoma cruzi [1]) [µM] | log1/IC50 (Trypanosoma cruzi [2]) | IC50 (Trypanosoma cruzi [2]) [µM] | log1/IC50 (Trypanosoma cruzi [6]) | IC50 (Trypanosoma cruzi [6]) [µM] | SMILES | IC50 [3] [µM] | selectivity ratio [4] | selectivity ratio [5] | selectivity ratio [7]
5.11 | 7.79 | 4.91 | 12.2 | 4.91 | 12.3 | O=C(N/N=C/c1ccc([N+](=O)[O-])o1)c1ccccc1Oc1ccccc1 | > 200 | > 26 | > 16 | > 16
5.03 | 9.41 | 4.91 | 12.2 | 4.86 | 13.8 | CC(C)(C)OC(=O)N/N=C/c1ccc([N+](=O)[O-])o1 | > 200 | > 21 | > 16 | > 14
5.41 | 3.91 | 5.04 | 9.04 | 5.22 | 6.09 | CC(C)c1ccc(C(=O)N/N=C/c2ccc([N+](=O)[O-])o2)cc1 | > 200 | > 51 | > 22 | > 33
5.04 | 9.15 | 4.84 | 14.5 | 4.7 | 20 | O=C(N/N=C/c1ccc([N+](=O)[O-])o1)c1ccc(Cl)cc1 | 187 | 20.4 | 12.9 | 9.36
5.04 | 9.09 | 5.01 | 9.8 | 4.99 | 10.3 | CCCc1ccc(C(=O)N/N=C/c2ccc([N+](=O)[O-])o2)cc1 | 89 | 10 | 9 | 9
5.51 | 3.39 | 5.37 | 4.22 | 5.36 | 4.34 | CCCCNc1ccc(C(=O)N/N=C/c2ccc([N+](=O)[O-])o2)cc1 | 47 | 14 | 11 | 11
5.51 | 3.1 | 5.36 | 4.41 | 5.32 | 4.75 | CCCCc1ccc(C(=O)N/N=C/c2ccc([N+](=O)[O-])o2)cc1 | > 200 | > 64 | > 45 | > 42
5.93 | 1.17 | 5.74 | 1.81 | 5.5 | 3.17 | O=C(N/N=C/c1ccc([N+](=O)[O-])o1)c1ccc(-c2ccccc2)cc1 | > 200 | > 176 | > 110 | > 63
5.46 | 3.47 | 5.37 | 4.25 | 5.29 | 5.07 | CCCCOc1ccc(C(=O)N/N=C/c2ccc([N+](=O)[O-])o2)cc1 | > 200 | > 58 | > 47 | > 39
5.13 | 7.33 | 5.01 | 9.72 | 4.89 | 12.8 | CCCOc1ccc(C(=O)N/N=C/c2ccc([N+](=O)[O-])o2)cc1 | > 200 | > 27 | > 21 | > 16
5.03 | 9.43 | 4.86 | 13.7 | 4.86 | 13.7 | CC(C)(C)c1ccc(C(=O)N/N=C/c2ccc([N+](=O)[O-])o2)cc1 | > 200 | > 21 | > 15 | > 15
